The values that follow come from US7786141B2 (Vertex Pharmaceuticals Incorporated, priority 2004, dated 2010).

One assay has as its target T1, M1 muscarinic receptor (Homo sapiens, UniProt P11229).
T1 construct: expressed in transfected cells; host or cells: CHO (M1-CHO)
T1 sequence (P11229 1-460): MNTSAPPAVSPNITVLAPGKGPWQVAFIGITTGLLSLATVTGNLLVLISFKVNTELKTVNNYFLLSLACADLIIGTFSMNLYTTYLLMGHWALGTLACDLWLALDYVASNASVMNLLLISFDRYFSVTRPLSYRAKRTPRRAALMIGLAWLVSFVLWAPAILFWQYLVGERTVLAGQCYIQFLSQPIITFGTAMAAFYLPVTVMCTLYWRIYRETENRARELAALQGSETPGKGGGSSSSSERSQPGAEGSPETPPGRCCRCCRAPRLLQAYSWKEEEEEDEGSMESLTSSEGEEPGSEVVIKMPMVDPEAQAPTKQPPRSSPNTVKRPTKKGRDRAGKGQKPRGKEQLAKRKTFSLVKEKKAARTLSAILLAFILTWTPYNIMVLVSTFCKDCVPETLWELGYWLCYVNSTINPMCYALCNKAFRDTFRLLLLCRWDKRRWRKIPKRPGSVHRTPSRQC
The assay can be described thus: Functional mobilization of intracellular calcium (FLIPR) in M1-CHO cells. Format: cell-based. The conditions noted are these: M1 receptor, calcium mobilization; for Emax: read-out: M1 Efficacy. A digest of the protocol:
(§1)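 Steps: seed M1- or M4-CHO cells 18-24 hrs ahead; load calcium dye with 1 mM probenecid; add test compound (0.5% DMSO final), either alone for agonism or 15 min before EC80 carbachol for inhibition; record FLIPR fluorescence for 60 sec.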
(Calcium flux is commonly read through the fluorescence of an indicator in the cells.)

The next assay addresses T2, M4 muscarinic receptor (Homo sapiens, UniProt P08173).
T2 construct: expressed in transfected cells; host or cells: CHO (M4-CHO)
T2 sequence (P08173 1-479): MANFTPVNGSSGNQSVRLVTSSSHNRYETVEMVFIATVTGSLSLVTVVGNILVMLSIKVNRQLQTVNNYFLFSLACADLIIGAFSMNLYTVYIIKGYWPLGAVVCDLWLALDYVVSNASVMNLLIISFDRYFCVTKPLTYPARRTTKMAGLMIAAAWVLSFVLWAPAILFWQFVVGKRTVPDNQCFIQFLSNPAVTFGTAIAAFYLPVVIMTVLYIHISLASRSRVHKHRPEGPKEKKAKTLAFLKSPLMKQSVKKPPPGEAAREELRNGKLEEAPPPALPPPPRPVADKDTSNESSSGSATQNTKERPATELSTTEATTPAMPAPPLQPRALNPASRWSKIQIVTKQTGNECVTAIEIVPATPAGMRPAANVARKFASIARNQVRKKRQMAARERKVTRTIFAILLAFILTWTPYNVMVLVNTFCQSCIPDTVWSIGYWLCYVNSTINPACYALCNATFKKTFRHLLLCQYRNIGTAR
The assay can be described thus: Functional mobilization of intracellular calcium (FLIPR) in M4-CHO cells. Format: cell-based. The conditions noted are these: M4 receptor, calcium mobilization; for Emax: read-out: M4 Efficacy. A digest of the protocol:
as §1

SMILES strings stand for the structures. Bounds are passed on as bounds.

As to `CCOC(=O)N1CCC(CN2CCC3(CC2)COc2ccc(F)cc23)CC1` [compound 107], on M1 muscarinic receptor, the “M1 Activity” value is “xxx (activity was measured to be less than 0.1 μM)” and the Emax lay within 65 to 85%. Besides, on M4 muscarinic receptor, the “M4 Activity” value was “x (activity was measured to be greater than 1.0 μM)” and the Emax was less than 65%.
In the case of `CC(C)OC(=O)N1C2CCC1CC(N1CCC3(CC1)CN(C(=O)N(C)C)c1ccc(F)cc13)C2` (centres unmarked) [compound 108], on M1 muscarinic receptor, the “M1 Activity” value is recorded as “xxx (activity was measured to be less than 0.1 μM)” and the Emax is 65 to 85%. Further, at M4 muscarinic receptor, the “M4 Activity” value was “xx (activity was measured to be between 0.1 μM and 1.0 μM)”; the Emax was less than 65%.
As to `CCOC(=O)N1C2CCC1CC(N1CCC3(CC1)CNc1ccc(C)cc13)C2` (centres unmarked) [compound 109], at M1 muscarinic receptor, the “M1 Activity” value is listed as “xxx (activity was measured to be less than 0.1 μM)” and the Emax lay within 65 to 85%. Besides, at M4 muscarinic receptor, the “M4 Activity” value was “xx (activity was measured to be between 0.1 μM and 1.0 μM)”; the Emax is less than 65%.
Regarding `c1ccc2c(c1)NCC21CCN(CC2CC3CCC2C3)CC1` (centres unmarked) [compound 110], on M1 muscarinic receptor, the “M1 Activity” value is on record as “xxx (activity was measured to be less than 0.1 μM)” and the Emax is less than 65%. For the same molecule, at M4 muscarinic receptor, the “M4 Activity” value is “xx (activity was measured to be between 0.1 μM and 1.0 μM)”; the Emax is less than 65%.
Regarding `Fc1ccc2c(c1)C1(CCN(C3CCC4CCC3C4)CC1)CN2` (centres unmarked) [compound 111], on M1 muscarinic receptor, the “M1 Activity” value is reported as “xxx (activity was measured to be less than 0.1 μM)” and the Emax was 65 to 85%. In addition, on M4 muscarinic receptor, the “M4 Activity” value is “xx (activity was measured to be between 0.1 μM and 1.0 μM)”; the Emax was less than 65%.
Turning to `O=C(O[C@@H]1CCOC1)N1CC2(CCN(C3CC4CCC(C3)N4C(=O)O[C@@H]3CCOC3)CC2)c2cc(F)ccc21` (some centres unmarked) [compound 112], on M1 muscarinic receptor, the “M1 Activity” value was “xxx (activity was measured to be less than 0.1 μM)” and the Emax fell in the range of 65 to 85%. In addition, on M4 muscarinic receptor, the “M4 Activity” value is “xx (activity was measured to be between 0.1 μM and 1.0 μM)”; the Emax was less than 65%.
As to `CCOC(=O)N1CCC(N2CCC3(CC2)CN(C(C)=O)c2ccc(F)cc23)C1` (centres unmarked) [compound 113], at M1 muscarinic receptor, the “M1 Activity” value is “xxx (activity was measured to be less than 0.1 μM)” and the Emax fell in the range of 65 to 85%. In addition, on M4 muscarinic receptor, the “M4 Activity” value is listed as “x (activity was measured to be greater than 1.0 μM)” and the Emax was less than 65%.
Take `CCCOC(=O)N1CC2(CCN(C3CCN(C(=O)OCC)CC3)CC2)c2cc(F)ccc21` [compound 114]: on M1 muscarinic receptor, the “M1 Activity” value was “xx (activity was measured to be between 0.1 μM and 1.0 μM)”; the Emax was in the range of 65 to 85%. On M4 muscarinic receptor, the “M4 Activity” value is reported as “x (activity was measured to be greater than 1.0 μM)” and the Emax is less than 65%.
Consider `CCCOC(=O)N1C2CCC1CC(N1CCC3(CC1)CN(C(=O)O[C@@H]1CCOC1)c1ccc(F)cc13)C2` (some centres unmarked) [compound 115], for which, on M1 muscarinic receptor, the “M1 Activity” value is “xxx (activity was measured to be less than 0.1 μM)” and the Emax is 65 to 85%. Further, on M4 muscarinic receptor, the “M4 Activity” value is “xx (activity was measured to be between 0.1 μM and 1.0 μM)”; the Emax was less than 65%.
For the molecule `Cc1ccc2c(c1)C1(CCN(C3CC4CCC3C4)CC1)CN2C(=O)OC(C)(C)C` (centres unmarked) [compound 116], on M1 muscarinic receptor, the “M1 Activity” value was “xxx (activity was measured to be less than 0.1 μM)” and the Emax lay in the range of 65 to 85%. Besides, at M4 muscarinic receptor, the “M4 Activity” value was “xx (activity was measured to be between 0.1 μM and 1.0 μM)”; the Emax was less than 65%.
For `COCCOC(=O)N1CC2(CCN(C3CC4CCC(C3)N4C(=O)OCCOC)CC2)c2cc(F)ccc21` (centres unmarked) [compound 117], on M1 muscarinic receptor, the “M1 Activity” value is reported as “xxx (activity was measured to be less than 0.1 μM)” and the Emax lay in the range of 65 to 85%. Besides, on M4 muscarinic receptor, the “M4 Activity” value was “xx (activity was measured to be between 0.1 μM and 1.0 μM)”; the Emax is less than 65%.
Take `CC(=O)N1CC2(CCN(CC3CC4CCC3C4)CC2)c2cc(C)ccc21` (centres unmarked) [compound 118]: at M1 muscarinic receptor, the “M1 Activity” value is recorded as “xxx (activity was measured to be less than 0.1 μM)” and the Emax fell in the range of 65 to 85%. In addition, on M4 muscarinic receptor, the “M4 Activity” value is given as “x (activity was measured to be greater than 1.0 μM)” and the Emax is less than 65%.
Taken in the same sequence, the figures for `COCCOC(=O)N1C2CCC1CC(N1CCC3(CC1)CN(C(=O)N(C)C)c1ccc(F)cc13)C2` (centres unmarked) [compound 119] were “xxx (activity was measured to be less than 0.1 μM)”, less than 65%, “x (activity was measured to be greater than 1.0 μM)” and less than 65%.
For the molecule `CN(C)C(=O)N1CC2(CCN(C3CCN(C(=O)O[C@H]4CCOC4)CC3)CC2)c2cc(F)ccc21` [compound 120], on M1 muscarinic receptor, the “M1 Activity” value was “xx (activity was measured to be between 0.1 μM and 1.0 μM)”; the Emax was less than 65%. For the same molecule, at M4 muscarinic receptor, the “M4 Activity” value is reported as “x (activity was measured to be greater than 1.0 μM)” and the Emax was less than 65%.
On to `CS(=O)(=O)N1CC2(CCN(C3CC4CCC(C3)N4C(=O)OC3CCC3)CC2)c2cc(F)ccc21` (centres unmarked) [compound 122], for which, at M1 muscarinic receptor, the “M1 Activity” value is recorded as “xxx (activity was measured to be less than 0.1 μM)” and the Emax lay within 65 to 85%. Besides, at M4 muscarinic receptor, the “M4 Activity” value was “xx (activity was measured to be between 0.1 μM and 1.0 μM)”; the Emax is less than 65%.
With `O=C(OC1CCC1)N1C2CCC1CC(N1CCC3(CC1)COc1ccc(F)cc13)C2` (centres unmarked) [compound 123], at M1 muscarinic receptor, the “M1 Activity” value was “xx (activity was measured to be between 0.1 μM and 1.0 μM)”; the Emax was less than 65%. For the same molecule, at M4 muscarinic receptor, the “M4 Activity” value is “x (activity was measured to be greater than 1.0 μM)” and the Emax was less than 65%.
Consider `O=C(OCC(F)(F)F)N1C2CCC1CC(N1CCC3(CC1)COc1ccc(F)cc13)C2` (centres unmarked) [compound 124], for which, at M1 muscarinic receptor, the “M1 Activity” value is “xxx (activity was measured to be less than 0.1 μM)” and the Emax was less than 65%. Further, on M4 muscarinic receptor, the “M4 Activity” value was “xx (activity was measured to be between 0.1 μM and 1.0 μM)”; the Emax is less than 65%.
With `O=C(OC1CCC1)N1CC2(CCN(C3CC4CCC(C3)N4C(=O)O[C@H]3CCOC3)CC2)c2cc(F)ccc21` (some centres unmarked) [compound 125], at M1 muscarinic receptor, the “M1 Activity” value is reported as “xxx (activity was measured to be less than 0.1 μM)” and the Emax lay within 65 to 85%. On M4 muscarinic receptor, the “M4 Activity” value was “xx (activity was measured to be between 0.1 μM and 1.0 μM)”; the Emax is less than 65%.
`CCOC(=O)N1CCC(N2CCC3(CC2)CN(C(C)=O)c2ccc(-c4ccccc4)cc23)CC1` [compound 126]: at M1 muscarinic receptor, the “M1 Activity” value is given as “xxx (activity was measured to be less than 0.1 μM)” and the Emax is less than 65%. Besides, on M4 muscarinic receptor, the “M4 Activity” value is “x (activity was measured to be greater than 1.0 μM)” and the Emax was less than 65%.
`C#CCCOC(=O)N1CCC(N2CCC3(CC2)CN(C(=O)N(C)C)c2ccc(F)cc23)CC1` [compound 127]: on M1 muscarinic receptor, the “M1 Activity” value is on record as “xxx (activity was measured to be less than 0.1 μM)” and the Emax is 65 to 85%. Also, on M4 muscarinic receptor, the “M4 Activity” value was “xx (activity was measured to be between 0.1 μM and 1.0 μM)”; the Emax is less than 65%.
Take `CCOC(=O)N1CCC(N2CCC3(CC2)CN(C(C)=O)c2ccc(-c4ccoc4)cc23)CC1` [compound 128]: at M1 muscarinic receptor, the “M1 Activity” value is recorded as “xxx (activity was measured to be less than 0.1 μM)” and the Emax was less than 65%. At M4 muscarinic receptor, the “M4 Activity” value is “xx (activity was measured to be between 0.1 μM and 1.0 μM)”; the Emax is less than 65%.
In the case of `COC(=O)N1CCC(CN2CCC3(CC2)CN(C(C)=O)c2ccc(F)cc23)CC1` [compound 129], at M1 muscarinic receptor, the “M1 Activity” value is recorded as “xxx (activity was measured to be less than 0.1 μM)” and the Emax is 65 to 85%. Besides, at M4 muscarinic receptor, the “M4 Activity” value is listed as “x (activity was measured to be greater than 1.0 μM)” and the Emax was less than 65%.
Turning to `CN(C)C(=O)N1CC2(CCN(C3CC4CCC(C3)N4C(=O)O[C@H]3CCOC3)CC2)c2cc(F)ccc21` (some centres unmarked) [compound 130], at M1 muscarinic receptor, the “M1 Activity” value was “xxx (activity was measured to be less than 0.1 μM)” and the Emax is less than 65%. Further, at M4 muscarinic receptor, the “M4 Activity” value was “xx (activity was measured to be between 0.1 μM and 1.0 μM)”; the Emax is less than 65%.
